Reference: US6541480B2, “1-aryl-1,8-naphthylidin-4-one derivative as type IV phosphodiesterase inhibitor” (Suntory Limited, priority 1997, dated 2003)

Columns and labels:
[1] = system: type IV phosphodiesterase; assay: Type IV phosphodiesterase inhibiting activity (3H-cAMP hydrolysis, PDE IV fraction from U937 cells); type: biochemical; settings: PDE IV fraction from human U937 cells, 30° C., 30 minutes
Experimental: (1) Method of Measurement of Type IV Phosphodiesterase Inhibiting Activity
The following assay was used to evaluate the ability of the compound of the present invention to suppress type IV phosphodiesterase, according to Biochemical.
1) Type IV phosphodiesterase activity fractions were prepared as follows. Human histiocytic lymphoma cell line U937 was cultured in an RPMI1640 medium containing 10% fetal calf serum to obtain 10^9 cells of U937. The cells were recovered by centrifugation and suspended in 40 ml of buffer A (20 mM bis-tris, 5 mM 2-mercaptoethanol, 2 mM benzamidine, 2 mM EDTA, 0.1 mM 4-(2-aminoethyl)benzensulfonyl hydrochloride, 50 mM sodium acetate, pH=6.5). The cells were broken by a sonication and centrifuged (4° C., 10,000G, 10 minutes) to obtain a supernatent. This was filtered by a 0.45 μm filter to obtain the soluble fraction.
The soluble fraction obtained was applied into a 1×10 cm DEAE Sepharose column equalibrated with the buffer A. 120 ml of the buffer A containing a linear gradient solution of 0.05 to 1 M sodium acetate was used to separate the phosphodiesterase and recover 24 5-ml fractions. Each of the fractions was measured for the cAMP phosphodiesterase activity.
2) The test compound was reacted at a desired concentration in a reaction mixture containing 20 mM tris-HCl (pH 7.5), 1 mM MgCl2, 100 μM EDTA, 330 μg/ml calf serum albumin, 10 μg/ml 5′-nucleotidase, 0.4 μCi ^3H-cAMP ([…] cAMP) and the type IV phosphodiesterase stored solution at 30° C. for 30 minutes. QAE-Sephadex suspended in 10 mM of hepes-Na (pH-7.0) was added to the reaction mixture which was then allowed to stand for 5 minutes, then the supernatant was obtained, QAE-Sephadex was further added, to the supernatant, and was allowed to stand for 5 minutes, then the supernatant was obtained and measured for radioactivity.

[2] = system: TNF-α production by LPS stimulated mouse peritoneal macrophages; assay: TNF-α production inhibitory activity by LPS stimulated macrophages (ELISA); type: cell-based; settings: LPS 10 μg/ml, 8 hours
Experimental: (1) Method of Measurement of TNF-α Production Inhibitory Activity by LPS Stimulated Macrophages
The following assay was used to evaluate the ability of the compound of the present invention to suppress TNF-α production by LPS stimulated macrophages according to Immuno pharmacol. 29, 121-127 (1995).
1) 6 to 10 week old female BALB/c mice were used, 2 ml portions of thioglycolate were intraperitoneally administered, and the abdominal cavities were washed by 10 ml of PBS after 4 days, whereby 1 to 2×10^7 peritoneal cells were obtained per mouse. These were suspended in a hemocyte solution (0.75% ammonium chloride, 17 mM tris-hydrochlorate buffer, pH7.2), centrifuged, then resuspended in an RPMI1640 medium including 10% fetal calf serum and seeded in a 96-well cell culture plate at a density of 1×10^5 cells/50 μl/well. Since these cells adhered strongly to the tissue culture plate and were positive in nonspecific esterase staining, they were used for the test as mouse peritoneal macrophages. Mouse peritoneal macrophages were precultured overnight at 37° C. in 5% CO2 for the experiment.
2) E. Coli (serum type 055:B5) derived LPS was dissolved in PBS in a concentration of 1 mg/ml, then sterilized by filtration. The test compound was dissolved in DMSO to make a 1000-fold concentration solution of the final concentration of use. 10 μl of the above LPS stock solution (final concentration 10 μg/ml) and 1 μl of the tested substance stock solution were added and mixed in 0.5 ml of RPMI1640 medium containing 10% fetal calf serum. This was added to the above cells at 50 μl/well and cultured for 8 hours. The cultured supernatant was recovered from each well and the TNF-α concentration was measured by the ELISA method (Cytoscreen® Immunoassay Kit Mouse TNF-α, BioSource International).

[3] = 28-day repeated administration toxicity in mice; type: in vivo; settings: 10 mg/kg per day administered for 28 days to mice

Row | IC50 [1] [nM] | IC50 ([2]; Peritoneal macrophage) [nM] | Compound | death [3] | IC50 [2] [nM]
1 | 4.6 | 1000 | O=C(Nc1c(Cl)ncnc1Cl)c1cn(-c2ccc(F)cc2)c2ncccc2c1=O [Example 108, 1-(4-Fluorophenyl)-N-(4,6-dichloropyrimidine-5-yl)-1,4-dihydro[1,8]naphthylidin-4-one-3-carboxamide] | – | –
2 | 140 | 200 | Nc1ccc(NC(=O)c2cn(-c3ccc(F)cc3)c3ncccc3c2=O)cc1 [Example 92, N-(4-aminophenyl)-1-(4-fluorophenyl)-1,4-dihydro[1,8]naphthylidin-4-one-3-carboxamide] | – | –
3 | 16 | 30 | O=C(Nc1ccccc1[N+](=O)[O-])c1cn(-c2ccc(F)cc2)c2ncccc2c1=O [Example 93, 1-(4-fluorophenyl)-N-(2-nitrophenyl)-1,4-dihydro[1,8]naohthylidin-4-one-3-carboxamide] | – | –
4 | 60 | 700 | O=C(Nc1ccccc1)c1cn(-c2ccc(F)cc2)c2ncccc2c1=O [Example 67, N-phenyl-1-(4-fluorophenyl)-1,4-dihydro[1,8]naphthylidin-4-one-3-carboxamide] | – | –
5 | 180 | 10 | Cc1cccc(C)c1NC(=O)c1cn(-c2ccc(F)cc2)c2ncccc2c1=O [Example 72, 1-(4-Fluorophenyl)-N-(2,6-xylidyl)-1,4-dihydro[1,8]naphthylidin-4-one-3-carboxamide] | – | –
6 | 140 | 700 | O=C(Nc1ccncc1)c1cn(-c2ccc(OCc3ccccc3)nc2)c2ncccc2c1=O [Example 144, 1-(2-Benzyloxypyridin-5-yl)-N-(4-pyridyl)-1,4-dihydro[1,8]naphthylidin-4-one-3-carboxamide] | – | –
7 | 58 | 1 | COc1ccc(-n2cc(C(=O)Nc3ccncc3)c(=O)c3cccnc32)cc1 [Example 122, 1-(4-Methoxyphenyl)-N-(4-pyridyl)-1,4-dihydro[1,8]naphthylidin-4-one-3-carboxamide] | – | –
8 | 610 | 1000 | Cc1cccc(NC(=O)c2cn(-c3ccc(F)cc3)c3ncccc3c2=O)c1 [Example 70, 1-(4-Fluororhenyl)-N-(3-tolyl)-1,4-dihydro[1,8]naohthylidin-4-one-3-carboxamide] | – | –
9 | 4.9 | 4 | O=C(Nc1c(Cl)cccc1Cl)c1cn(-c2ccncc2)c2ncccc2c1=O [Example 137, N-(2,6-Dichlorophenyl)-1-(4-pyridyl)-1,4-dihydro[1,8]naphthylidin-4-one-3-carboxamide] | – | –
10 | 13 | 100 | Cc1ccccc1NC(=O)c1cn(-c2ccc(F)cc2)c2ncccc2c1=O [Example 69, 1-(4-Fluorophenyl)-N-(2-tolyl)-1,4-dihydro[1,8]naphthylidin-4-one-3-carboxamide] | – | –
11 | 5.9 | 30 | O=C(Nc1c(Cl)cncc1Cl)c1cn(-c2nccs2)c2ncccc2c1=O [Example 152, N-(3,5-Dichloropyridin-4-yl)-1-(2-thiazolyl)-1,4-dihydro[1,8]naphthylidin-4-one-3-carboxamide] | – | –
12 | 96 | 500 | Nc1ccccc1NC(=O)c1cn(-c2ccc(F)cc2)c2ncccc2c1=O [Example 90, N-(2-aminophenyl)-1-(4-fluorophenyl)-1,4-dihydro[1,8]naphthylidin-4-one-3-carboxamide] | – | –
13 | 5200 | 10000 | CCn1cc(C(=O)NCCc2ccncc2)c(=O)c2ccc(C)nc21 [Comp. Ex., N-(2-(4-pyridyl)ethyl)-1-ethyl-7-methyl-1,4-dihydro[1,8]naphthylidin-4-one-3-carboxyamide, reference compound] | – | –
14 | 0.8 | – | O=C(Nc1c(Cl)cncc1Cl)c1cn(-c2cccnc2)c2ncccc2c1=O [Example 136, N-(3,5-Dichloropyridin-4-yl)-1-(3-pyridyl)-1,4-dihydro[1,8]naphthylidin-4-one-3-carboxamide] | – | 3
15 | 1.7 | 10 | O=C(Nc1c(Cl)cncc1Cl)c1cn(-c2ccc(OCc3ccccc3)nc2)c2ncccc2c1=O [Example 146, 1-(2-Benzyloxypyridin-5-yl)-N-(3,5-dichloropyridin-4-yl)-1,4-dihydro[1,8]naphthylidin-4-one-3-carboxamide] | – | –
16 | 470 | 800 | O=C(Nc1cccnc1)c1cn(-c2cccnc2)c2ncccc2c1=O [Example 134, 1,N-bis-(3-Pyridyl)-1,4-dihydro[1,8]naphthylidin-4-one-3-carboxamide] | – | –
17 | 85 | 400 | O=C(Nc1cccnc1Cl)c1cn(-c2ccc(F)cc2)c2ncccc2c1=O [Example 105, N-(2-Chloropyridin-3-yl)-1-(4-fluorophenyl)-1,4-dihydro[1,8]naphthylidin-4-one-3-carboxamide] | – | –

Row | Compound | IC50 [1] [nM] | IC50 ([2]; Peritoneal macrophage) [nM] | death [3] | IC50 [2] [nM]
18 | O=C(Nc1ccncc1)c1cn(-c2ccncc2)c2ncccc2c1=O [Example 139, 1,N-bis-(4-Pyridyl)-1,4-dihydro[1,8]naphthylidin-4-one-3-carboxamide] | 70 | 100 | no death | –
19 | O=C(Nc1c(Cl)cncc1Cl)c1cn(-c2ccc(F)cc2)c2ncccc2c1=O [Example 106, N-(3,5-Dichloropyridin-4-yl)-1-(4-fluorophenyl)-1,4-dihydro[1,8]naphthylidin-4-one-3-carboxamide] | 0.4 | – | no death | 10
20 | O=C(Nc1c(Cl)cncc1Cl)c1cn(-c2ccncc2)c2ncccc2c1=O [Example 141, N-(3,5-Dichloropyridin-4-yl)-1-(4-pyridyl)-1,4-dihydro[1,8]naphthylidin-4-one-3-carboxamide] | 0.5 | 1 | no death | –
21 | O=C(Nc1c(Cl)cccc1Cl)c1cn(-c2ccc(F)cc2)c2ncccc2c1=O [Example 99, N-(2,6-Dichlorophenyl)-1-(4-fluorophenyl)-1,4-dihydro[1,8]naphthylidin-4-one-3-carboxamide] | 3.4 | 25 | no death | –
22 | O=C(Nc1cccnc1)c1cn(-c2ccc(F)cc2)c2ncccc2c1=O [Example 102, 1-(4-Fluorophenyl)-N-(3-pyridyl)-1,4-dihydro[1,8]naphthylidin-4-one-3-carboxamide] | 35 | 100 | no death | –
23 | O=C(Nc1ccncc1)c1cn(-c2ccc(F)cc2)c2ncccc2c1=O [Example 103, 1-(4-Fluorophenyl)-N-(4-pyridyl)-1,4-dihydro[1,8]naphthylidin-4-one-3-carboxamide] | 59 | 100 | no death | –
